Experimental data: patent US20130295143A1, “ELECTROPROCESSING OF ACTIVE PHARMACEUTICAL INGREDIENTS” (Massachusetts Institute of Technology, priority 2012, published 2013)
“Also recorded” adds a separate entry of the source.

What was measured:
Assay type in all cases: physicochemical
[1] = USP dissolution test of compressed electrospun tablets vs compressed powder tablets; conditions: USP apparatus II, 50 rpm, 37° C., 900 mL; 0.1 N HCl for ABZ, 0.1 M Phosphate buffer for FAM; 150 mg 9 mm tablets, 1:2 API:PVP
Experimental: Powder tablets were prepared by weighing out 50 mg API powder and 100 mg PVP powder, mixing for 1 min, and pressing into 9 mm tablets using the same press with the same insertion depth. The electrospun tablets were compared to the compressed powder tablets for analysis. […] Dissolution was performed using a Varian VK 7025 dissolution bath (Agilent, Santa Clara, Calif.) and a Cary 50 Bio UV spectrophotometer (Agilent, Santa Clara, Calif.). For ABZ the standard USP methods were used with 900 mL 0.1 N HCl media, apparatus II, 50 rpm paddle speed and a temperature of 37° C. For FAM standard USP methods were used with 900 mL 0.1 M Phosphate buffer media, apparatus II, 50 rpm paddle speed, and a temperature of 37° C. Measurements were made every minute for 90 minutes by probes inserted in the bath and connected to the spectrophotometer by fiber optic cables.

[2] = Polymorphism of API before and after electrospinning (XRD, DSC); conditions: free-surface electrospinning from PVP/ethanol suspension
Experimental: Scanning electron microscopy (SEM) was used to analyze the morphology of the fibers. A Quorum Technologies SC7640 high resolution gold/palladium sputter coater was used to coat the samples, and a JEOL 6060 SEM at 5 kV operating voltage was used to obtain images. Both X-ray diffraction (XRD) and differential scanning calorimetry (DSC) were used to confirm the presence of crystals and analyze the polymorph present in the electrospun fibers. XRD was performed on a PANalytical X′Pert Pro with a reflection-transmission spinner PW 3064/60 sample stage and a Cu X-ray source with a 1.54 Å wavelength. DSC was performed on a TA DSC Q2000 instrument using a 2-6 mg sample in an aluminum sample pan. The materials were heated at 10° C./min to 250° C. and 200° C. for ABZ and FAM, respectively.

[3] = Drug loading in electrospun fibers by UV-vis spectroscopy; conditions: 1:2 API:PVP, nominal API loading 33 wt %; average of three measurements
Experimental: In order to determine the actual drug loading in the electrospun fibers, samples were analyzed with a Perkin-Elmer (Waltham, Mass.) double-beam Lambda25 UV-vis spectrophotometer. A standard curve was prepared for ABZ in methanol for concentrations from 0.005 mg/mL to 0.05 mg/mL at an absorbance of 295 nm and for FAM in methanol for concentrations from 0.002 mg/mL to 0.035 mg/mL at an absorbance of 286 nm. […] A known mass of electrospun mat was dissolved in a known volume of methanol and diluted such that the expected concentration of API fell within the concentration ranges covered by the standard curves. From the resulting measured concentration, the mass of API in the original mat sample, and thus the weight percent API in the electrospun mat was calculated. Three measurements were made per API and were averaged to give the reported value.

Row | SMILES | dissolution amount, electrospun formulation relative to compressed powder tablet [1] | polymorphism of the API through the electrospinning process [2] | average loading of API in the electrospun fibers [3] [wt %]
1 | NC(N)=Nc1nc(CSCCC(N)=NS(N)(=O)=O)cs1 [FAM, famotidine] | more than twice the dissolution amount | retained their polymorphism throughout processing | 26
2 | CCCSc1ccc2nc(NC(=O)OC)[nH]c2c1 [ABZ, albendazole] | more than twice the dissolution amount | retained their polymorphism throughout processing; also recorded: not significantly affected | 31
